According to US20070128217A1 (priority 2003, published 2007):

Assays:
[1] = tested on: recombinant human anti-SARS-CoV antibody 03-018; assay type: binding; parameters: Binding of antibody 03-018 to linear peptides of the N protein of SARS-CoV Urbani / Binding of antibody 03-018 to looped/cyclic peptides of the N protein of SARS-CoV Urbani: unit not given here
[2] = tested on: rabbit serum obtained by immunizing a rabbit with the SARS-CoV strain Frankfurt 1; assay type: binding; parameters: Binding of a rabbit serum to linear peptides / Binding of a rabbit serum to looped peptides / Rabbit serum linear peptides / Rabbit serum looped peptides / Binding of a rabbit serum to linear peptides of protein N of SARS-CoV Urbani (Rabbit serum linear peptides) / Binding of a rabbit serum to looped/cyclic peptides of protein N of SARS-CoV Urbani (Rabbit serum looped peptides): unit not given here
[3] = tested on: antibodies in sera from SARS patients (sera 1a, 1b, 2, 6, 37, 62, London, SARS-yellow, SARS-green); assay type: binding, human; parameters: Binding of serum 6 to linear peptides of protein X1 of SARS-CoV Urbani / Binding of serum 37 to linear peptides of protein X1 of SARS-CoV Urbani / Binding of serum 6 to looped/cyclic peptide (PEPSCAN-ELISA) / Binding of serum 37 to looped/cyclic peptide (PEPSCAN-ELISA) / Binding of serum 37 to looped/cyclic peptides of protein X1 of SARS-CoV Urbani / Binding of serum 6 to linear peptides of protein X2 / Binding of serum 37 to linear peptides of protein X2 / Binding of serum 37 to looped/cyclic peptides of protein X2 of SARS-CoV Urbani / Binding of serum 6 to linear peptides of protein M of SARS-CoV Urbani / Binding of serum 37 to linear peptides of protein M of SARS-CoV Urbani / Binding of serum 6 to looped/cyclic peptides of protein M of SARS-CoV Urbani / Binding of serum 37 to looped/cyclic peptides of protein M of SARS-CoV Urbani / Binding of serum 6 to linear peptides of protein X3 of SARS-CoV Urbani / Binding of serum 37 to linear peptides of protein X3 of SARS-CoV Urbani / Binding of serum 37 to looped/cyclic peptides of protein X3 of SARS-CoV Urbani / Binding of serum 6 to linear peptides of protein X4 of SARS-CoV Urbani / Binding of serum 37 to linear peptides of protein X4 of SARS-CoV Urbani / Binding of serum 37 to looped/cyclic peptides of protein X4 of SARS-CoV Urbani / Binding of serum 6 to linear peptides of protein X5 of SARS-CoV Urbani / Binding of serum 37 to linear peptides of protein X5 of SARS-CoV Urbani / Binding of serum 37 to looped/cyclic peptides of protein X5 of SARS-CoV Urbani / Binding of serum 6 to linear peptides of protein N of SARS-CoV Urbani / Binding of serum 37 to linear peptides of protein N of SARS-CoV Urbani / Binding of serum 6 to linear peptide (PEPSCAN-ELISA) / Binding of serum 1a to looped/cyclic peptides of protein N of SARS-CoV Urbani / Binding of serum 1b to looped/cyclic peptides of protein N of SARS-CoV Urbani / Binding of serum 2 to looped/cyclic peptides of protein N of SARS-CoV Urbani / Binding of serum 6 to looped/cyclic peptides of protein N of SARS-CoV Urbani / Binding of serum 37 to looped/cyclic peptides of protein N of SARS-CoV Urbani / Binding of serum 62 to looped/cyclic peptides of protein N of SARS-CoV Urbani / Binding of serum London to looped/cyclic peptides of protein N of SARS-CoV Urbani / Binding of serum SARS-green to looped/cyclic peptides of protein N of SARS-CoV Urbani: unit not given here
[4] = tested on: control sera (pooled serum of ten healthy LUMC hospital workers; commercial negative donor pooled serum from the Dutch bloodbank); assay type: binding, human; parameters: Binding of Control serum LUMC to linear peptides / Binding of Control serum Blood-bank to linear peptides / Binding of Control serum LUMC to looped peptides / Binding of Control Serum Blood-Bank to Looped peptides / Binding of Control serum LUMC to linear peptides of the protein M of SARS-CoV Urbani / Binding of Control serum Blood-bank to linear peptides of the protein M of SARS-CoV Urbani / Binding of Control serum LUMC to looped peptides of the protein M of SARS-CoV Urbani / Binding of Control Serum Blood-Bank to Looped peptides of the protein M of SARS-CoV Urbani: unit not given here

Sequence: RITFGGPTDSTDNNQ
- Recognition of the peptide by antibody 03-018 [1]: recognized
- Binding of a rabbit serum to linear peptides of protein N of SARS-CoV Urbani (Rabbit serum linear peptides) [2]: 0.3
- Binding of a rabbit serum to looped/cyclic peptides of protein N of SARS-CoV Urbani (Rabbit serum looped peptides) [2]: 0.1
- Binding of serum 1a to linear peptides of protein N of SARS-CoV Urbani [3]: 0.2
- Binding of serum 1a to looped/cyclic peptides of protein N of SARS-CoV Urbani [3]: 0.3
- Binding of serum 1b to linear peptides of protein N of SARS-CoV Urbani [3]: 0.1
- Binding of serum 1b to looped/cyclic peptides of protein N of SARS-CoV Urbani [3]: 0.2
- Binding of serum 2 to linear peptides of protein N of SARS-CoV Urbani [3]: 0.2
- Binding of serum 2 to looped/cyclic peptides of protein N of SARS-CoV Urbani [3]: 0.2
- Binding of serum 6 to linear peptides of protein N of SARS-CoV Urbani [3]: 0.1
- Binding of serum 6 to looped/cyclic peptides of protein N of SARS-CoV Urbani [3]: 0.2
- Binding of serum 37 to linear peptides of protein N of SARS-CoV Urbani [3]: 0.8
- Binding of serum 37 to looped/cyclic peptides of protein N of SARS-CoV Urbani [3]: 0.5
- Binding of serum 62 to linear peptides of protein N of SARS-CoV Urbani [3]: 0.6
- Binding of serum 62 to looped/cyclic peptides of protein N of SARS-CoV Urbani [3]: 0.3
- Binding of serum London to linear peptides of protein N of SARS-CoV Urbani [3]: 0.5
- Binding of serum London to looped/cyclic peptides of protein N of SARS-CoV Urbani [3]: 0.3
- Binding of serum SARS-green to linear peptides of protein N of SARS-CoV Urbani [3]: 0.5
- Binding of serum SARS-green to looped/cyclic peptides of protein N of SARS-CoV Urbani [3]: 0.4
- Binding of serum SARS-yellow to linear peptides of protein N of SARS-CoV Urbani [3]: 1.3
- Binding of serum SARS-yellow to looped/cyclic peptides of protein N of SARS-CoV Urbani [3]: 0.2
- Binding of Control Serum Blood-Bank to Looped peptides [4]: 0.6
- Binding of Control serum Blood-bank to linear peptides [4]: 0.6
- Binding of Control serum LUMC to linear peptides [4]: 0.5
- Binding of Control serum LUMC to looped peptides [4]: 0.5

Sequence: DNNQNGGRNGARPKQ
- Binding of antibody 03-018 to linear peptides of the N protein of SARS-CoV Urbani [1]: 0.2
- Binding of antibody 03-018 to looped/cyclic peptides of the N protein of SARS-CoV Urbani [1]: 0.3
- Binding of a rabbit serum to linear peptides of protein N of SARS-CoV Urbani (Rabbit serum linear peptides) [2]: 0.1
- Binding of a rabbit serum to looped/cyclic peptides of protein N of SARS-CoV Urbani (Rabbit serum looped peptides) [2]: 0.4
- Binding of serum 1a to linear peptides of protein N of SARS-CoV Urbani [3]: 0.2
- Binding of serum 1a to looped/cyclic peptides of protein N of SARS-CoV Urbani [3]: 0.4
- Binding of serum 1b to linear peptides of protein N of SARS-CoV Urbani [3]: 0.1
- Binding of serum 1b to looped/cyclic peptides of protein N of SARS-CoV Urbani [3]: 0.2
- Binding of serum 2 to linear peptides of protein N of SARS-CoV Urbani [3]: 0.3
- Binding of serum 2 to looped/cyclic peptides of protein N of SARS-CoV Urbani [3]: 0.4
- Binding of serum 6 to linear peptides of protein N of SARS-CoV Urbani [3]: 0.1
- Binding of serum 6 to looped/cyclic peptides of protein N of SARS-CoV Urbani [3]: 0.3
- Binding of serum 37 to linear peptides of protein N of SARS-CoV Urbani [3]: 0.6
- Binding of serum 37 to looped/cyclic peptides of protein N of SARS-CoV Urbani [3]: 0.6
- Binding of serum 62 to linear peptides of protein N of SARS-CoV Urbani [3]: 0.7
- Binding of serum 62 to looped/cyclic peptides of protein N of SARS-CoV Urbani [3]: 0.4
- Binding of serum London to linear peptides of protein N of SARS-CoV Urbani [3]: 0.5
- Binding of serum London to looped/cyclic peptides of protein N of SARS-CoV Urbani [3]: 0.4
- Binding of serum SARS-green to linear peptides of protein N of SARS-CoV Urbani [3]: 0.6
- Binding of serum SARS-green to looped/cyclic peptides of protein N of SARS-CoV Urbani [3]: 0.4
- Binding of serum SARS-yellow to linear peptides of protein N of SARS-CoV Urbani [3]: 0.6
- Binding of serum SARS-yellow to looped/cyclic peptides of protein N of SARS-CoV Urbani [3]: 0.4
- Binding of Control Serum Blood-Bank to Looped peptides [4]: 0.7
- Binding of Control serum Blood-bank to linear peptides [4]: 0.8
- Binding of Control serum LUMC to linear peptides [4]: 0.6
- Binding of Control serum LUMC to looped peptides [4]: 0.6

Sequence: VTQAFGRRGPEQTQG
- Binding of antibody 03-018 to linear peptides of the N protein of SARS-CoV Urbani [1]: 0.1
- Binding of antibody 03-018 to looped/cyclic peptides of the N protein of SARS-CoV Urbani [1]: 0.2
- Recognition of the peptide by the rabbit serum [2]: recognized
- Binding of serum 1a to linear peptide (PEPSCAN-ELISA) [3]: 0.3
- Binding of serum 1a to looped/cyclic peptides of protein N of SARS-CoV Urbani [3]: 0.3
- Binding of serum 1b to linear peptide (PEPSCAN-ELISA) [3]: 0.1
- Binding of serum 1b to looped/cyclic peptides of protein N of SARS-CoV Urbani [3]: 0.2
- Binding of serum 2 to linear peptide (PEPSCAN-ELISA) [3]: 0.1
- Binding of serum 2 to looped/cyclic peptides of protein N of SARS-CoV Urbani [3]: 0.2
- Binding of serum 6 to linear peptide (PEPSCAN-ELISA) [3]: 0.2
- Binding of serum 6 to looped/cyclic peptides of protein N of SARS-CoV Urbani [3]: 0.1
- Binding of serum 37 to linear peptide (PEPSCAN-ELISA) [3]: 0.6
- Binding of serum 37 to looped/cyclic peptides of protein N of SARS-CoV Urbani [3]: 0.4
- Binding of serum 62 to linear peptide (PEPSCAN-ELISA) [3]: 0.5
- Binding of serum 62 to looped/cyclic peptides of protein N of SARS-CoV Urbani [3]: 0.3
- Binding of serum London to linear peptide (PEPSCAN-ELISA) [3]: 0.5
- Binding of serum London to looped/cyclic peptides of protein N of SARS-CoV Urbani [3]: 0.3
- Binding of serum SARS-green to linear peptide (PEPSCAN-ELISA) [3]: 0.5
- Binding of serum SARS-green to looped/cyclic peptides of protein N of SARS-CoV Urbani [3]: 0.2
- Binding of serum SARS-yellow to linear peptide (PEPSCAN-ELISA) [3]: 0.7
- Binding of serum SARS-yellow to looped/cyclic peptides of protein N of SARS-CoV Urbani [3]: 0.3
- Binding of Control Serum Blood-Bank to Looped peptides [4]: 0.6
- Binding of Control serum Blood-bank to linear peptides [4]: 0.8
- Binding of Control serum LUMC to linear peptides [4]: 0.7
- Binding of Control serum LUMC to looped peptides [4]: 0.5

Sequence: DLIRQGTDYKHWPQI
- Binding of antibody 03-018 to linear peptides of the N protein of SARS-CoV Urbani [1]: 0.1
- Binding of antibody 03-018 to looped/cyclic peptides of the N protein of SARS-CoV Urbani [1]: 0.2
- Binding of a rabbit serum to linear peptides of protein N of SARS-CoV Urbani (Rabbit serum linear peptides) [2]: 0.0
- Binding of a rabbit serum to looped/cyclic peptides of protein N of SARS-CoV Urbani (Rabbit serum looped peptides) [2]: 0.5
- Binding of serum 1a to linear peptides of protein N of SARS-CoV Urbani [3]: 0.2
- Binding of serum 1a to looped/cyclic peptides of protein N of SARS-CoV Urbani [3]: 0.4
- Binding of serum 1b to linear peptides of protein N of SARS-CoV Urbani [3]: 0.1
- Binding of serum 1b to looped/cyclic peptides of protein N of SARS-CoV Urbani [3]: 0.2
- Binding of serum 2 to linear peptides of protein N of SARS-CoV Urbani [3]: 0.2
- Binding of serum 2 to looped/cyclic peptides of protein N of SARS-CoV Urbani [3]: 0.4
- Binding of serum 6 to linear peptides of protein N of SARS-CoV Urbani [3]: 0.2
- Binding of serum 6 to looped/cyclic peptides of protein N of SARS-CoV Urbani [3]: 0.2
- Binding of serum 37 to linear peptides of protein N of SARS-CoV Urbani [3]: 0.6
- Binding of serum 37 to looped/cyclic peptides of protein N of SARS-CoV Urbani [3]: 0.6
- Binding of serum 62 to linear peptides of protein N of SARS-CoV Urbani [3]: 0.6
- Binding of serum 62 to looped/cyclic peptides of protein N of SARS-CoV Urbani [3]: 0.6
- Binding of serum London to linear peptides of protein N of SARS-CoV Urbani [3]: 0.9
- Binding of serum London to looped/cyclic peptides of protein N of SARS-CoV Urbani [3]: 0.4
- Binding of serum SARS-green to linear peptides of protein N of SARS-CoV Urbani [3]: 0.4
- Binding of serum SARS-green to looped/cyclic peptides of protein N of SARS-CoV Urbani [3]: 0.2
- Binding of serum SARS-yellow to linear peptides of protein N of SARS-CoV Urbani [3]: 0.6
- Binding of serum SARS-yellow to looped/cyclic peptides of protein N of SARS-CoV Urbani [3]: 0.3
- Binding of Control Serum Blood-Bank to Looped peptides [4]: 0.5
- Binding of Control serum Blood-bank to linear peptides [4]: 0.6
- Binding of Control serum LUMC to linear peptides [4]: 0.5
- Binding of Control serum LUMC to looped peptides [4]: 0.5
